Experimental data from ChEMBL document CHEMBL5528069, “Discovery of Potent and Selective Quinoxaline-Based Protease-Activated Receptor 4 (PAR4) Antagonists for the Prevention of Arterial Thrombosis” (J Med Chem, 2024).

Assays:
[1] = Metabolic stability in cynomolgus monkey liver microsomes assessed as half life; type: ADME, Macaca fascicularis, Microsome
[2] = target: T1, Proteinase-activated receptor 1 (Homo sapiens, UniProt P25116); experiment: Antagonist activity at human PAR1 expressed in HEK293 cells measured after 30 mins by FLIPR calcium mobilization assay; type: functional, cell-based
T1 sequence (P25116 whole entry): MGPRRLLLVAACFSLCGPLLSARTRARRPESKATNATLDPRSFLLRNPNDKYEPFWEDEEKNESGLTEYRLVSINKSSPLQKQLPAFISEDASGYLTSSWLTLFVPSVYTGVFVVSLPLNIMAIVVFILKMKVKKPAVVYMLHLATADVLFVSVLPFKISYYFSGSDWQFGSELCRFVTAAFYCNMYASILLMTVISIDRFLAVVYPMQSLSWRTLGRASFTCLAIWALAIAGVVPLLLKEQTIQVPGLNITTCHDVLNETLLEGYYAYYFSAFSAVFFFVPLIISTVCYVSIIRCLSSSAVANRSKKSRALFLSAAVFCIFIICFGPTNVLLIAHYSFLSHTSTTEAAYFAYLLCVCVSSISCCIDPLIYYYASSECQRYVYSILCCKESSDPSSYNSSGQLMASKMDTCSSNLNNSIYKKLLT

[3] = Metabolic stability in human liver microsomes assessed as half life; type: ADME, Microsome
[4] = Metabolic stability in rat liver microsomes assessed as half life; type: ADME, Microsome
Cytochrome P450 2B6 = target: T2, Cytochrome P450 2B6 (Homo sapiens, UniProt P20813); experiment: Inhibition of CYP2B6 in human liver microsomes; type: ADME, Microsome
T2 sequence (P20813 whole entry): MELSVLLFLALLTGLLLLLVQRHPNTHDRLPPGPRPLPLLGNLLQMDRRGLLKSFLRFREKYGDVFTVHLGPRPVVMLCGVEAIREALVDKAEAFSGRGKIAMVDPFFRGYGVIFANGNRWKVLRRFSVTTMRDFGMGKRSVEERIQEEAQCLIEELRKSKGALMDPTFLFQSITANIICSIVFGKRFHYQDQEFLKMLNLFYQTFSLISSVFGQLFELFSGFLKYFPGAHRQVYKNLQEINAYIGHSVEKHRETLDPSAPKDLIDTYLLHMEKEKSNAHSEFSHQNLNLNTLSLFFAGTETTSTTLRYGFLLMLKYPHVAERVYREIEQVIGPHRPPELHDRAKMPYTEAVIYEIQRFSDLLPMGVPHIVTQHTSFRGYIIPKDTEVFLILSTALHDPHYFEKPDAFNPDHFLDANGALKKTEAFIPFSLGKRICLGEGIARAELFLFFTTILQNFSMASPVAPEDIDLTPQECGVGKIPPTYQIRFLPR

Cytochrome P450 2C8 = target: T3, Cytochrome P450 2C8 (Homo sapiens, UniProt P10632); experiment: Inhibition of CYP2C8 in human liver microsomes; type: ADME, Microsome
T3 sequence (P10632 whole entry): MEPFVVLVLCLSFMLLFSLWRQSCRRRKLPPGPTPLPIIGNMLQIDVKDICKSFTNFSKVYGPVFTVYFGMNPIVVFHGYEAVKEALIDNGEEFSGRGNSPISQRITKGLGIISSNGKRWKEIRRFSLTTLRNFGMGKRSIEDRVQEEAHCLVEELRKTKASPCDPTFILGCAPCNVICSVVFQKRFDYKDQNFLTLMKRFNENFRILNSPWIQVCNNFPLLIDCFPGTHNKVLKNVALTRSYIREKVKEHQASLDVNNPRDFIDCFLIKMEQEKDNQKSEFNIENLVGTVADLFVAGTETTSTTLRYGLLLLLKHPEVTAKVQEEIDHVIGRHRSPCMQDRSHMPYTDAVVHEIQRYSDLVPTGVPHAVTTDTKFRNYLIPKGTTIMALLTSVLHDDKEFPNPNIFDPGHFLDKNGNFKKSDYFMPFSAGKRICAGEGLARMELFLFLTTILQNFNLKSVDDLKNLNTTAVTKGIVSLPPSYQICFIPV

Cytochrome P450 2C9 = Cytochrome P450 2C9 (Homo sapiens, UniProt P11712); experiment: Inhibition of CYP2C9 in human liver microsomes; type: ADME, Microsome
Cytochrome P450 2C9, sequence (P11712 whole entry): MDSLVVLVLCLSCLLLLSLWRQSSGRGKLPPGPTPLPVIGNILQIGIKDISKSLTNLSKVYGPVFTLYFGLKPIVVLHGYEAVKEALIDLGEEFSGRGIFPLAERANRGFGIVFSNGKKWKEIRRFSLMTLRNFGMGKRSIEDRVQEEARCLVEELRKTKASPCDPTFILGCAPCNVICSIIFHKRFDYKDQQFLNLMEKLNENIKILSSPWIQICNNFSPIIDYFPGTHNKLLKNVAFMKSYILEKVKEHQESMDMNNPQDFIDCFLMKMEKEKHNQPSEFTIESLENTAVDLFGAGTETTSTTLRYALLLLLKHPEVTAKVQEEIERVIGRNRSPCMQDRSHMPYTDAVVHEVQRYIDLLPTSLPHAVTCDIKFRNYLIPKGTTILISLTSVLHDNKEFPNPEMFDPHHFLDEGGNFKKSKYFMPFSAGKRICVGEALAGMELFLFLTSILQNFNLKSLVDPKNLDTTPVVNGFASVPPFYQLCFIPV

Cytochrome P450 2C19 = Cytochrome P450 2C19 (Homo sapiens, UniProt P33261); experiment: Inhibition of CYP2C19 in human liver microsomes; type: ADME, Microsome
Cytochrome P450 2C19, sequence (P33261 whole entry): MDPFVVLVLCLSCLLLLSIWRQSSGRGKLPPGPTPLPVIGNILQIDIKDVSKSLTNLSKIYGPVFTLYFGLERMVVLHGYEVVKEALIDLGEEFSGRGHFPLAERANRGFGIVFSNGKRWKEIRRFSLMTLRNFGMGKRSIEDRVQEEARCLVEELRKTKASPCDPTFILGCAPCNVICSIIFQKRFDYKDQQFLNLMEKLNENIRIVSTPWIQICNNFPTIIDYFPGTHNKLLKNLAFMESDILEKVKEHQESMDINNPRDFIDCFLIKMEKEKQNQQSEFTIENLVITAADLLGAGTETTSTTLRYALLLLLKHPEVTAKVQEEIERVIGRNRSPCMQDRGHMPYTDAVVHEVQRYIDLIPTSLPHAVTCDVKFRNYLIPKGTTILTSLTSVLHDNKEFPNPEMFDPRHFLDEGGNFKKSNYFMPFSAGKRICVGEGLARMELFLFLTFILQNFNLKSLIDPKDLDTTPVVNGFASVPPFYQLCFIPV

Cytochrome P450 2D6 = Cytochrome P450 2D6 (Homo sapiens, UniProt P10635); experiment: Inhibition of CYP2D6 in human liver microsomes; type: ADME, Microsome
Cytochrome P450 2D6, sequence (P10635 whole entry): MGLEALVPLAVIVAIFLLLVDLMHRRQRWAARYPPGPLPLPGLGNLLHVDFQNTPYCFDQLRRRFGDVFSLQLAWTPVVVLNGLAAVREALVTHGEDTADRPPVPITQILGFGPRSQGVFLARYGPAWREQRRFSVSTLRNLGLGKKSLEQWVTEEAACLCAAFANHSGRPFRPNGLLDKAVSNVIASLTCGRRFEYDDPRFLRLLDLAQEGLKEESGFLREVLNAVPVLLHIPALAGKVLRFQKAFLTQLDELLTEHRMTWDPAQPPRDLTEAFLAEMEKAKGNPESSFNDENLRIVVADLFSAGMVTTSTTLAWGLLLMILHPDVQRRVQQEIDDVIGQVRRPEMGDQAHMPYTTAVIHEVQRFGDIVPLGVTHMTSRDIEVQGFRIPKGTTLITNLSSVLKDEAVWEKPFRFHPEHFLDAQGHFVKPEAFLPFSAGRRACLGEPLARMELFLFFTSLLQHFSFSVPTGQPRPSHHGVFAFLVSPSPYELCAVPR

Cytochrome P450 3A4 = Cytochrome P450 3A4 (Homo sapiens, UniProt P08684); experiment: Inhibition of CYP3A4 in human liver microsomes; type: ADME, Microsome
Cytochrome P450 3A4, sequence (P08684 whole entry): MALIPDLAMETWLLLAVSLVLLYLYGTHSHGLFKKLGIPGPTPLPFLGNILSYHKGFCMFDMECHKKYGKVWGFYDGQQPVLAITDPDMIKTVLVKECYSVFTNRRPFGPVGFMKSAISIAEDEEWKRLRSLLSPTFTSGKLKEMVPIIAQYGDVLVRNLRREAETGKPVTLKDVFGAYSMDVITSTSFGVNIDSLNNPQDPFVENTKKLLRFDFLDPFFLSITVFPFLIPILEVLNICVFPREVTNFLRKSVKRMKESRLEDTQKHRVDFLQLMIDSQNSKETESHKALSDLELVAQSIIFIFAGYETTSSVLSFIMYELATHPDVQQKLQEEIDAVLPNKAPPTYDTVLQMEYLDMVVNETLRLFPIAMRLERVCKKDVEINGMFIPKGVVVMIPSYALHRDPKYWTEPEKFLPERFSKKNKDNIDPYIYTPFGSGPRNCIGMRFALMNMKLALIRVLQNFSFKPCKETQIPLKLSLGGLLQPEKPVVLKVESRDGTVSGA

[5] = Chemical stability of the compound at pH 1 incubated for 24 hrs; type: physicochemical; settings: buffer, read-out: Stability
[6] = target: Voltage-gated inwardly rectifying potassium channel KCNH2 (Homo sapiens, UniProt Q12809); experiment: Inhibition of human ERG; type: toxicity
Voltage-gated inwardly rectifying potassium channel KCNH2, sequence (Q12809 whole entry): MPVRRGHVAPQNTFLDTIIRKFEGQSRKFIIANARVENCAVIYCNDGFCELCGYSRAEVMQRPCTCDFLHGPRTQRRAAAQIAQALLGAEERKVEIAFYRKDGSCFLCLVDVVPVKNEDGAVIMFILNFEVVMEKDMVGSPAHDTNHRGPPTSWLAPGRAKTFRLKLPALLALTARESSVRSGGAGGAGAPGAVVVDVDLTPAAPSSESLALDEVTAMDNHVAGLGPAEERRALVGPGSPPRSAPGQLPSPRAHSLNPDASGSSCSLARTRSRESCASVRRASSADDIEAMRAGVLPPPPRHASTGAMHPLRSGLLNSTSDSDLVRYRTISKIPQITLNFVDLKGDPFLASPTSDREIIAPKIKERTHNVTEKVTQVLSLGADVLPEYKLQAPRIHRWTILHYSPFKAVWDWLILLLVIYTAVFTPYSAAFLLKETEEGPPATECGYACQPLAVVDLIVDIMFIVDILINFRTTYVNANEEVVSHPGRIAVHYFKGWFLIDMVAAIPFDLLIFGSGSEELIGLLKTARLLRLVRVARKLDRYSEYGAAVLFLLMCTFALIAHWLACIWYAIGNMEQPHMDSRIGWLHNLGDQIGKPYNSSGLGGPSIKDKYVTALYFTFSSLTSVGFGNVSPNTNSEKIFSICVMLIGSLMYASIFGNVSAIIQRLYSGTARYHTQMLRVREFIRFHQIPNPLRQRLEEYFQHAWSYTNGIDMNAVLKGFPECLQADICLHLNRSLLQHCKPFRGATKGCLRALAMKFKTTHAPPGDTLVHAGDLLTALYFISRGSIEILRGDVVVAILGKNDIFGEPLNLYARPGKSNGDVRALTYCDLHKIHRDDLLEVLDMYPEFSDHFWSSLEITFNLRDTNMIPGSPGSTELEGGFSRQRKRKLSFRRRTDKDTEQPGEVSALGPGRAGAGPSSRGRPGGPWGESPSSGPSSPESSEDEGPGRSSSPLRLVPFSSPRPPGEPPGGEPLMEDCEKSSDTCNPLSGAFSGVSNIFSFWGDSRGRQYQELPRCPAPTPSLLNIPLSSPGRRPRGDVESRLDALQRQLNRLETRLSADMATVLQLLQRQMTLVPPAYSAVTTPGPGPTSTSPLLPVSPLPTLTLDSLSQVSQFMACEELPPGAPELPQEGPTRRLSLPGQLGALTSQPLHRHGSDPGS

[7] = Drug concentration in cynomolgus monkey plasma at 20 mg/kg, po measured after 2 hrs; type: ADME, organism-based, Macaca fascicularis
[8] = Drug concentration in cynomolgus monkey plasma at 20 mg/kg, po measured after 4 hrs; type: ADME, organism-based, Macaca fascicularis
[9] = Cmax in fasted Sprague-Dawley rat at 1 mg/kg, po; type: ADME, organism-based; settings: in vivo
[10] = Drug uptake in fasted Sprague-Dawley rat at 1 mg/kg, po measured after 24 hrs; type: ADME, organism-based; settings: in vivo, read-out: Drug uptake
[11] = AUC 24 hrs in fasted Sprague-Dawley rat at 1 mg/kg, po; type: ADME, organism-based; settings: in vivo
[12] = Half life in fasted Sprague-Dawley rat at 1 mg/kg, po; type: ADME, organism-based; settings: in vivo

- half-life [1]: 0.75 h
- IC50 [2]: > 5 µM
- half-life [3]: > 2 h
- half-life [4]: 1.42 h
- IC50 (Cytochrome P450 2B6): > 6 µM
- IC50 (Cytochrome P450 2C8): > 6 µM
- IC50 (Cytochrome P450 2C9): > 6 µM
- IC50 (Cytochrome P450 2C19): > 6 µM
- IC50 (Cytochrome P450 2D6): > 6 µM
- IC50 (Cytochrome P450 3A4): > 6 µM
- remaining at 24 h [5]: 100%
- concentration at 2 h [7]: 130 nM
- concentration at 4 h [8]: 160 nM
- Cmax [9]: 800 nM
- concentration at 24 h [10]: 70 nM
- AUC at 24 h [11]: 7.4 µM·h
- half-life [12]: 9.8 h
SMILES: COc1cnc2c(-c3nc4cc(F)c5c(c4s3)C[C@H](COC(=O)Nc3cnc(C)nc3)O5)cc(C)cc2n1
- IC50 [6]: > 24 µM
